# From patent EP1332762A1, “Method of treating hyperprolactinemia and prolactinomas” (Cedars-Sinai Medical Center, priority 1997, dated 1998)
# Positions of bridges follow the written chain, without caps; N, C: chain ends. Non-standard residues stand in square brackets, D forms with d. Residues, ends and D or L forms follow the SMILES beside them.
# Columns and labels:
# [1] = system: Cells derived from six prolactin-secreting pituitary adenomas; test: Reduction of prolactin secretion from cultured prolactinoma cells (PRL by immunoradiometric assay); type: cell-based, human; details: for effect on prolactin release: adenomatous cell cultures of tumor 1; for effect on prolactin release / suppressed prolactin release: 10-100 nM; for effect on prolactin release / suppressed prolactin secretion / suppressed prolactin release: 3 hours; for effect on prolactin release / response of prolactin secretion / effect on prolactin production: result in words; for suppressed prolactin secretion: cell cultures from tumor 1; for response of prolactin secretion: cells of the four large male tumors (tumors 1-4); for suppressed prolactin release / effect on prolactin production: large tumor 4 cell cultures
# hSSTR-4 = hSSTR-4 (Homo sapiens, UniProt P31391); test: Somatostatin receptor binding assay ([125I-Tyr11]somatostatin-14, membranes of transfected CHO-K1 cells); details: radioligand 0.05 nM, 30 min at 30 °C
# hSSTR-4, sequence (P31391 whole entry): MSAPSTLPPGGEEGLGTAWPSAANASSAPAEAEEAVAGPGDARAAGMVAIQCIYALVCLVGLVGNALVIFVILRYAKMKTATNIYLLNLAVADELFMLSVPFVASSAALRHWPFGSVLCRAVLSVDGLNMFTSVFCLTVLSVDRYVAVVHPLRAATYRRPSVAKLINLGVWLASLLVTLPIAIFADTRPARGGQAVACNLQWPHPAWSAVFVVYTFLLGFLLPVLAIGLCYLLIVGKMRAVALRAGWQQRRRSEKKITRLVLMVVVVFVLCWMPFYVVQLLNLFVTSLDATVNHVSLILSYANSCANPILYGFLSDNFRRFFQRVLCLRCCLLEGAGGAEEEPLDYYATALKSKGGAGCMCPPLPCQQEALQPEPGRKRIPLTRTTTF
# hSSTR-3 = hSSTR-3 (Homo sapiens, UniProt P32745); test: as above; details: radioligand 0.05 nM, 30 min at 30 °C
# hSSTR-3, sequence (P32745 whole entry): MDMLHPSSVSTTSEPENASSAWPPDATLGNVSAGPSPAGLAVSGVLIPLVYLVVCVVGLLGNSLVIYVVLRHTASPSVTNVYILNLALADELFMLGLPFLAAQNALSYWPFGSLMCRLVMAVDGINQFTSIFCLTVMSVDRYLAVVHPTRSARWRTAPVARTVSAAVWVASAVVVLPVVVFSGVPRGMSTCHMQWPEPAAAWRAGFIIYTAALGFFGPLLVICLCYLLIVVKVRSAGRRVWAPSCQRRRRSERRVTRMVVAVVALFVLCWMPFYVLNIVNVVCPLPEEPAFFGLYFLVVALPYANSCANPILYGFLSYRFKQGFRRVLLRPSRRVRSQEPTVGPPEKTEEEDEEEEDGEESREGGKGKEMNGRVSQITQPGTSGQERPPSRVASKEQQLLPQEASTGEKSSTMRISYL
# hSSTR-1 = hSSTR-1 (Homo sapiens, UniProt P30872); test: as above; details: radioligand 0.05 nM, 30 min at 30 °C
# hSSTR-1, sequence (P30872 whole entry): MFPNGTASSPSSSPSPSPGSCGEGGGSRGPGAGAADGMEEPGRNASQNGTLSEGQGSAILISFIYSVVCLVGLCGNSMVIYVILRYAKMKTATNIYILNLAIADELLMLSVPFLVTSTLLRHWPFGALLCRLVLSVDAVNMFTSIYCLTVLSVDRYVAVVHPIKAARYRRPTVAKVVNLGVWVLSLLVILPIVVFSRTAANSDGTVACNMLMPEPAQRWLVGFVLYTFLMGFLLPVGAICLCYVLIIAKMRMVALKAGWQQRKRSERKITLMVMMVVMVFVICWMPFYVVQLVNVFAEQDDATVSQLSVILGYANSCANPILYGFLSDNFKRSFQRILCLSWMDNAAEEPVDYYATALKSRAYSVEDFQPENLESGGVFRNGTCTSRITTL
# hSSTR-2 = hSSTR-2 (Homo sapiens, UniProt P30874); test: as above; details: radioligand 0.05 nM, 30 min at 30 °C
# hSSTR-2, sequence (P30874 whole entry): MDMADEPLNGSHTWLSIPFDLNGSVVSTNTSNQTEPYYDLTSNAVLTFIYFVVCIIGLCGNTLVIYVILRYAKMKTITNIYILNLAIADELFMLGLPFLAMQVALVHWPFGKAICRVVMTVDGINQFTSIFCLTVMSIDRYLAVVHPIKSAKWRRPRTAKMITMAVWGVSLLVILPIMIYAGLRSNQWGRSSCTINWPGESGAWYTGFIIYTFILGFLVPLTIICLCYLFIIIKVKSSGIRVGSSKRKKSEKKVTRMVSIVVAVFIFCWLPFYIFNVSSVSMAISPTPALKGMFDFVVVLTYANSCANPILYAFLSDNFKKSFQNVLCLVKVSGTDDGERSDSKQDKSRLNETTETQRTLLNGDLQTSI
# hSSTR-5 = hSSTR-5 (Homo sapiens, UniProt P35346); test: as above; details: radioligand 0.05 nM, 30 min at 30 °C
# hSSTR-5, sequence (P35346 whole entry): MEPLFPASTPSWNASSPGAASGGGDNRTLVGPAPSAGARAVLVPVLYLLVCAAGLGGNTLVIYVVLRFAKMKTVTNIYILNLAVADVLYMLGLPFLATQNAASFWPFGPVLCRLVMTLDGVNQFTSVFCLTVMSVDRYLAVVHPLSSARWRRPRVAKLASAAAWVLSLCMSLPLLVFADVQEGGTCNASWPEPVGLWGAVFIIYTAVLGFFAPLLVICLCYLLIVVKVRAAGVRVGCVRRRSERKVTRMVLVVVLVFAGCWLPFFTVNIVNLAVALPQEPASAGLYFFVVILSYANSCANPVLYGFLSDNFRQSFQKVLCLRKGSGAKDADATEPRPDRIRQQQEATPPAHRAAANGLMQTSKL
compound,measurement,setting,value
CC[C@@H]1NC(=O)[C@H](CCCCN)NC(=O)[C@@H](Cc2c[nH]c3ccccc23)NC(=O)[C@H](Cc2ccc(O)cc2)NC(=O)[C@@H](NC(=O)[C@H](N)Cc2ccccc2)CSSC[C@@H](C(=O)N[C@H](C(N)=O)[C@@H](C)O)NC1=O [BIM-23023],effect on prolactin release,[1],did not affect prolactin release
"C[C@@H](O)[C@H](NC(=O)[C@H](Cc1ccccc1)NC(=O)[C@@H](NC(=O)[C@H](CCCCN)NC(=O)[C@@H](Cc1c[nH]c2ccccc12)NC(=O)[C@H](Cc1ccccc1)NC(=O)[C@H](Cc1ccccc1)NC(=O)[C@H](N)Cc1ccccc1)[C@@H](C)O)C(N)=O [BIM-23052, H-D-Phe-Phe-Phe-D-Trp-Lys-Thr-Phe-Thr-NH2] (H-[dF]FF[dW]KTFT-NH2)",suppressed prolactin secretion,"[1]; 10 nM, p<0.05",33%
same,response of prolactin secretion,[1],suppression of prolactin secretion
same,suppressed prolactin release,[1]; p<0.05,more than 30%
same,Ki,hSSTR-4,127 nM
same,Ki,hSSTR-3,5.6 nM
same,Ki,hSSTR-1,97.6 nM
same,Ki,hSSTR-2,12 nM
same,Ki,hSSTR-5,1.22 nM
CC[C@@H]1NC(=O)[C@H](CCCCN)NC(=O)[C@@H](Cc2c[nH]c3ccccc23)NC(=O)[C@H](Cc2ccc(O)cc2)NC(=O)[C@@H](NC(=O)[C@@H](Cc2ccccc2)NC(=O)CN2CCN(CCO)CC2)CSSC[C@@H](C(=O)N[C@H](C(N)=O)[C@@H](C)O)NC1=O [BIM-23190],effect on prolactin release,[1],did not affect prolactin release
same,response of prolactin secretion,[1],failed to respond
same,effect on prolactin production,[1],modestly stimulated prolactin production
CC[C@@H]1NC(=O)[C@H](CCCCN)NC(=O)[C@@H](Cc2c[nH]c3ccccc23)NC(=O)[C@H](Cc2ccc(O)cc2)NC(=O)[C@@H](NC(=O)[C@@H](Cc2ccccc2)NS(=O)(=O)CCN2CCN(CCO)CC2)CSSC[C@@H](C(=O)N[C@H](C(N)=O)[C@@H](C)O)NC1=O [BIM-23197],effect on prolactin release,[1],did not affect prolactin release
same,response of prolactin secretion,[1],failed to respond
same,effect on prolactin production,[1],modestly stimulated prolactin production
C[C@@H](O)[C@@H]1NC(=O)[C@H](CCCCN)NC(=O)[C@@H](Cc2c[nH]c3ccccc23)NC(=O)[C@H](Cc2ccccc2)NC(=O)[C@H](Cc2ccccc2)NC(=O)[C@@H](N)CSSC[C@@H](C(N)=O)NC(=O)[C@H](Cc2ccccc2)NC1=O [BIM-23268] (H-CFF[dW]KTFC-NH2; disulfide 1-8),suppressed prolactin secretion,"[1]; 10 nM, p<0.05",36%
same,response of prolactin secretion,[1],suppression of prolactin secretion
same,suppressed prolactin,"[1]; large tumor 3 cell cultures, 10 nM and 100 nM, dose dependent, p<0.05",up to 29%
same,suppressed prolactin release,[1]; p<0.05,more than 30%
same,Prolactin release inhibited,"[1]; tumor 2 cell cultures, 10 nM, versus controls, p<0.0005",38%
CC(C)[C@@H]1NC(=O)[C@H](CCCCN)NC(=O)[C@@H](Cc2c[nH]c3ccccc23)NC(=O)[C@H](Cc2ccc(O)cc2)NC(=O)[C@@H](NC(=O)[C@H](N)Cc2ccc3ccccc3c2)CSSC[C@@H](C(=O)N[C@H](C(N)=O)[C@@H](C)O)NC1=O [Lanreotide],effect on prolactin release,[1],did not affect prolactin release
same,response of prolactin secretion,[1],failed to respond
same,Ki,hSSTR-2,0.75 nM
C[C@@H](O)[C@@H]1NC(=O)[C@H](CCCCN)NC(=O)[C@@H](Cc2c[nH]c3ccccc23)NC(=O)[C@H](Cc2ccccc2)NC(=O)[C@@H](NC(=O)[C@H](N)Cc2ccccc2)CSSC[C@@H](C(=O)N[C@H](CO)[C@@H](C)O)NC1=O [Octreotide],response of prolactin secretion,[1],failed to respond
